From ChEMBL document CHEMBL1201862, “PubChem BioAssay data set” (2004)
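Values below derive from 48-hour exposures of cells grown in 96-well plates, with endpoints linearly interpolated between the two concentrations bracketing the appropriate inhibition level. The concentration for 50% growth inhibition is given as GI50.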 Calls of active or inactive are those of the source. Rule as the data show it: active = GI50 up to about 1.1 µM and inactive = higher.

Columns and labels:
Experiment in all cases: NCI tumour cell line growth inhibition, 48 h
NCI-H226 = tested on: NCI-H226
BT-549 = tested on: BT-549
Hs-578T = tested on: Hs-578T
HCT-116 = tested on: HCT-116
TK-10 = tested on: TK-10
SK-MEL-5 = tested on: SK-MEL-5
SR = tested on: SR
SNB-75 = tested on: SNB-75
OVCAR-5 = tested on: OVCAR-5
LOX IMVI = tested on: LOX IMVI
NCI-H23 = tested on: NCI-H23
SF-295 = tested on: SF-295
UO-31 = tested on: UO-31
K562 = tested on: K562
HOP-92 = tested on: HOP-92
DU-145 = tested on: DU-145
NCI/ADR-RES = tested on: NCI/ADR-RES
SNB-19 = tested on: SNB-19
MDA-MB-435 = tested on: MDA-MB-435
UACC-62 = tested on: UACC-62
SK-MEL-2 = tested on: SK-MEL-2
KM12 = tested on: KM12
IGROV-1 = tested on: IGROV-1
PC-3 = tested on: PC-3
SF-268 = tested on: SF-268
ACHN = tested on: ACHN
MDA-MB-231 = tested on: MDA-MB-231
SN12C = tested on: SN12C
SF-539 = tested on: SF-539
T47D = tested on: T47D
HCT-15 = tested on: HCT-15
OVCAR-4 = tested on: OVCAR-4
HT-29 = tested on: HT-29
SK-OV-3 = tested on: SK-OV-3
COLO 205 = tested on: COLO 205
SW-620 = tested on: SW-620
CAKI-1 = tested on: CAKI-1
HOP-62 = tested on: HOP-62
MCF7 = tested on: MCF7
OVCAR-8 = tested on: OVCAR-8
OVCAR-3 = tested on: OVCAR-3
Malme-3M = tested on: Malme-3M
NCI-H460 = tested on: NCI-H460
CCRF-CEM = tested on: CCRF-CEM
RXF 393 = tested on: RXF 393
MOLT-4 = tested on: MOLT-4
U-251 = tested on: U-251
SK-MEL-28 = tested on: SK-MEL-28
786-0 = tested on: 786-0
NCI-H522 = tested on: NCI-H522
UACC-257 = tested on: UACC-257
RPMI-8226 = tested on: RPMI-8226
M14 = tested on: M14
A549 = tested on: A549
EKVX = tested on: EKVX
HL-60 = tested on: HL-60
HCC 2998 = tested on: HCC 2998
A498 = tested on: A498

With O=c1cccc(Cl)[nH]1 the GI50 (NCI-H226) was > 100 µM (inactive), the GI50 (BT-549) was > 100 µM (inactive) and the GI50 (Hs-578T) was > 100 µM (inactive). The GI50 (HCT-116) was > 100 µM (inactive), the GI50 (TK-10) was > 100 µM (inactive) and the GI50 (SK-MEL-5) was 27 µM (inactive). The GI50 (SR) was > 100 µM (inactive), the GI50 (SNB-75) was > 100 µM (inactive) and the GI50 (OVCAR-5) was > 100 µM (inactive). For the same compound, the GI50 (LOX IMVI) was > 100 µM (inactive), the GI50 (NCI-H23) was > 100 µM (inactive) and the GI50 (SF-295) was > 100 µM (inactive). For the same compound, the GI50 (UO-31) was > 100 µM (inactive), the GI50 (K562) was > 100 µM (inactive) and the GI50 (HOP-92) was > 100 µM (inactive). For the same compound, the GI50 (DU-145) was > 100 µM (inactive), the GI50 (NCI/ADR-RES) was > 100 µM (inactive) and the GI50 (SNB-19) was > 100 µM (inactive). The GI50 (MDA-MB-435) was > 100 µM (inactive), the GI50 (UACC-62) was > 100 µM (inactive) and the GI50 (SK-MEL-2) was > 100 µM (inactive). For the same compound, the GI50 (KM12) was > 100 µM (inactive), the GI50 (IGROV-1) was > 100 µM (inactive) and the GI50 (PC-3) was > 100 µM (inactive). The GI50 (SF-268) was > 100 µM (inactive), the GI50 (ACHN) was > 100 µM (inactive) and the GI50 (MDA-MB-231) was > 100 µM (inactive). For the same compound, the GI50 (SN12C) was > 100 µM (inactive), the GI50 (SF-539) was > 100 µM (inactive) and the GI50 (T47D) was > 100 µM (inactive). For the same compound, the GI50 (HCT-15) was > 100 µM, the GI50 (OVCAR-4) was > 100 µM (inactive) and the GI50 (HT-29) was > 100 µM (inactive). The GI50 (SK-OV-3) was > 100 µM (inactive), the GI50 (COLO 205) was > 100 µM (inactive) and the GI50 (SW-620) was > 100 µM (inactive). The GI50 (CAKI-1) was > 100 µM (inactive), the GI50 (HOP-62) was > 100 µM (inactive) and the GI50 (MCF7) was > 100 µM (inactive). The GI50 (OVCAR-8) was > 100 µM (inactive), the GI50 (OVCAR-3) was > 100 µM (inactive) and the GI50 (Malme-3M) was > 100 µM (inactive). For the same compound, the GI50 (NCI-H460) was > 100 µM (inactive), the GI50 (CCRF-CEM) was > 100 µM (inactive) and the GI50 (RXF 393) was > 100 µM (inactive). For the same compound, the GI50 (MOLT-4) was > 100 µM (inactive), the GI50 (U-251) was > 100 µM (inactive) and the GI50 (SK-MEL-28) was > 100 µM (inactive). The GI50 (786-0) was > 100 µM (inactive), the GI50 (NCI-H522) was > 100 µM (inactive) and the GI50 (UACC-257) was > 100 µM (inactive). The GI50 (RPMI-8226) was > 100 µM (inactive), the GI50 (M14) was > 100 µM (inactive) and the GI50 (A549) was > 100 µM (inactive). For the same compound, the GI50 (EKVX) was > 100 µM (inactive).
With OC(c1ccccc1)C(F)(F)c1nc2ccccc2o1 (stereo not drawn) the GI50 (NCI-H226) was > 100 µM (inactive), the GI50 (BT-549) was > 100 µM (inactive) and the GI50 (Hs-578T) was > 100 µM (inactive). For the same compound, the GI50 (HCT-116) was > 100 µM (inactive), the GI50 (TK-10) was > 100 µM (inactive) and the GI50 (SK-MEL-5) was 77.1 µM (inactive). The GI50 (SR) was > 100 µM (inactive), the GI50 (SNB-75) was > 100 µM (inactive) and the GI50 (HL-60) was > 100 µM (inactive). The GI50 (LOX IMVI) was > 100 µM (inactive), the GI50 (NCI-H23) was > 100 µM (inactive) and the GI50 (SF-295) was > 100 µM (inactive). For the same compound, the GI50 (UO-31) was > 100 µM (inactive), the GI50 (K562) was 27.9 µM (inactive) and the GI50 (HOP-92) was > 100 µM (inactive). The GI50 (DU-145) was 67.5 µM (inactive), the GI50 (NCI/ADR-RES) was 89.3 µM (inactive) and the GI50 (SNB-19) was > 100 µM (inactive). For the same compound, the GI50 (MDA-MB-435) was 82 µM (inactive), the GI50 (UACC-62) was > 100 µM (inactive) and the GI50 (SK-MEL-2) was > 100 µM (inactive). For the same compound, the GI50 (KM12) was > 100 µM (inactive), the GI50 (IGROV-1) was > 100 µM (inactive) and the GI50 (PC-3) was > 100 µM (inactive). For the same compound, the GI50 (SF-268) was > 100 µM (inactive), the GI50 (ACHN) was > 100 µM (inactive) and the GI50 (MDA-MB-231) was > 100 µM (inactive). For the same compound, the GI50 (SF-539) was > 100 µM (inactive), the GI50 (T47D) was 55.3 µM (inactive) and the GI50 (HCT-15) was > 100 µM. For the same compound, the GI50 (OVCAR-4) was > 100 µM (inactive), the GI50 (HT-29) was > 100 µM (inactive) and the GI50 (SK-OV-3) was > 100 µM (inactive). For the same compound, the GI50 (COLO 205) was > 100 µM (inactive), the GI50 (SW-620) was > 100 µM (inactive) and the GI50 (CAKI-1) was > 100 µM (inactive). For the same compound, the GI50 (HOP-62) was > 100 µM (inactive), the GI50 (MCF7) was > 100 µM (inactive) and the GI50 (HCC 2998) was > 100 µM (inactive). For the same compound, the GI50 (OVCAR-8) was > 100 µM (inactive), the GI50 (NCI-H460) was > 100 µM (inactive) and the GI50 (CCRF-CEM) was 61.2 µM (inactive). The GI50 (RXF 393) was > 100 µM (inactive), the GI50 (MOLT-4) was 57.3 µM (inactive) and the GI50 (U-251) was > 100 µM (inactive). For the same compound, the GI50 (SK-MEL-28) was > 100 µM (inactive), the GI50 (786-0) was > 100 µM (inactive) and the GI50 (UACC-257) was > 100 µM (inactive). For the same compound, the GI50 (RPMI-8226) was 70 µM (inactive), the GI50 (M14) was > 100 µM (inactive) and the GI50 (A498) was 14.7 µM (inactive). For the same compound, the GI50 (EKVX) was > 100 µM (inactive).
For COc1cc2nc(Cl)nc(NS(=O)(=O)c3cc4ccccc4s3)c2cc1OC, the GI50 (NCI-H226) was 36.8 µM (inactive), the GI50 (BT-549) was 22.9 µM (inactive) and the GI50 (Hs-578T) was 40.6 µM (inactive). For the same compound, the GI50 (HCT-116) was 30.2 µM (inactive), the GI50 (TK-10) was 28.3 µM (inactive) and the GI50 (SK-MEL-5) was 19.1 µM (inactive). For the same compound, the GI50 (SR) was 23.4 µM (inactive), the GI50 (SNB-75) was 23.1 µM (inactive) and the GI50 (OVCAR-5) was 19.6 µM (inactive). The GI50 (LOX IMVI) was 23.3 µM (inactive), the GI50 (NCI-H23) was 25.7 µM (inactive) and the GI50 (SF-295) was 33.8 µM (inactive). For the same compound, the GI50 (UO-31) was 16.4 µM (inactive), the GI50 (K562) was 18.2 µM (inactive) and the GI50 (HOP-92) was 18 µM (inactive). For the same compound, the GI50 (DU-145) was 21.3 µM (inactive), the GI50 (NCI/ADR-RES) was 39.8 µM (inactive) and the GI50 (SNB-19) was 21 µM (inactive). The GI50 (MDA-MB-435) was 22.4 µM (inactive), the GI50 (UACC-62) was 16.9 µM (inactive) and the GI50 (SK-MEL-2) was 24.5 µM (inactive). For the same compound, the GI50 (KM12) was 23.3 µM (inactive), the GI50 (IGROV-1) was 27 µM (inactive) and the GI50 (PC-3) was 26.1 µM (inactive). For the same compound, the GI50 (SF-268) was 35.3 µM (inactive), the GI50 (ACHN) was 30.8 µM (inactive) and the GI50 (MDA-MB-231) was 24.9 µM (inactive). The GI50 (SN12C) was 29.6 µM (inactive), the GI50 (SF-539) was 37.2 µM (inactive) and the GI50 (T47D) was 19.7 µM (inactive). The GI50 (HCT-15) was 36.3 µM, the GI50 (OVCAR-4) was 27.4 µM (inactive) and the GI50 (HT-29) was 27.5 µM (inactive). For the same compound, the GI50 (SK-OV-3) was 28.1 µM (inactive), the GI50 (COLO 205) was 38.1 µM (inactive) and the GI50 (SW-620) was 17.1 µM (inactive). The GI50 (CAKI-1) was 33.3 µM (inactive), the GI50 (HOP-62) was 31.5 µM (inactive) and the GI50 (MCF7) was 31.6 µM (inactive). For the same compound, the GI50 (HCC 2998) was 19 µM (inactive), the GI50 (OVCAR-8) was 33 µM (inactive) and the GI50 (OVCAR-3) was 19 µM (inactive). For the same compound, the GI50 (Malme-3M) was 32 µM (inactive), the GI50 (NCI-H460) was 32.5 µM (inactive) and the GI50 (CCRF-CEM) was 12.1 µM (inactive). For the same compound, the GI50 (RXF 393) was 16.6 µM (inactive), the GI50 (U-251) was 27.3 µM (inactive) and the GI50 (SK-MEL-28) was 0.0335 µM (active). For the same compound, the GI50 (786-0) was 35.4 µM (inactive), the GI50 (NCI-H522) was 31.3 µM (inactive) and the GI50 (UACC-257) was 32.4 µM (inactive). The GI50 (RPMI-8226) was 18.4 µM (inactive), the GI50 (M14) was 26.2 µM (inactive) and the GI50 (A549) was 32 µM (inactive). The GI50 (A498) was 16.4 µM (inactive) and the GI50 (EKVX) was 25 µM (inactive).
